# In US9481885B2, “Methods and compositions related to miR-21 and miR-29a, exosome inhibition, and cancer metastasis” (Ohio State Innovation Foundation, priority 2011, dated 2016):
# Target: T1, human TLR7 (Homo sapiens, UniProt Q9NYK1)
# T1 construct: host or cells: HEK-Blue TLR7 293 (TLR7-HEK-293)
# T1 sequence (Q9NYK1 27-1049): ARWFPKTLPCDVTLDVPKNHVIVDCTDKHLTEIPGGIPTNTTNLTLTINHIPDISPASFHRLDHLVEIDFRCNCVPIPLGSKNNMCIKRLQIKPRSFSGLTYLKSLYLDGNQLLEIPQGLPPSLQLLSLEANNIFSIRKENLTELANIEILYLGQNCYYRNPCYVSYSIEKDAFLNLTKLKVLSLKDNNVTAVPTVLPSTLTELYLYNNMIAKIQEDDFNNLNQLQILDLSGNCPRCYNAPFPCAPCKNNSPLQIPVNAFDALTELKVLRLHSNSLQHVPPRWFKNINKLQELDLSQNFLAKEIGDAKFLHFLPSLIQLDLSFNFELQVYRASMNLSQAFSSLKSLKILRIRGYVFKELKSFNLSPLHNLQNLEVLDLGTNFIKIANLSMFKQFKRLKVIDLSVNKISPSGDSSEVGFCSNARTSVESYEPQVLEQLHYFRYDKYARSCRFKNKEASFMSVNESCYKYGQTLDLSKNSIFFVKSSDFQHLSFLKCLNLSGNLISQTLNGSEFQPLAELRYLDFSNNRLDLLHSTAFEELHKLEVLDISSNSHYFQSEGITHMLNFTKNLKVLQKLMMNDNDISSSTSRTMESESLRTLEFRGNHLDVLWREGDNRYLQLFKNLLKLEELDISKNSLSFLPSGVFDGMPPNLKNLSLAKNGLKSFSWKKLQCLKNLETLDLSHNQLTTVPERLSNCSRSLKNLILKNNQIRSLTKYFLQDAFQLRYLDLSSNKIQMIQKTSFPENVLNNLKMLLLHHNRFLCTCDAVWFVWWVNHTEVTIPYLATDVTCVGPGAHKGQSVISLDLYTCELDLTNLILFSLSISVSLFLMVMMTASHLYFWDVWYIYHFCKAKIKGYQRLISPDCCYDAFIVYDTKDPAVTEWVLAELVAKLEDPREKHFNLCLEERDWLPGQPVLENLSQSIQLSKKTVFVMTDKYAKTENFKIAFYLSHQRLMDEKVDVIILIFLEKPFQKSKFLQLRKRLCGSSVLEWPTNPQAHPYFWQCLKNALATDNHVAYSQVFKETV
# Experiment: NF-κB reporter assay (QUANTI-Blue) in TLR7-HEK-293 cells
# Type: cell-based
# Conditions: Dotap formulations of miRNA
# Protocol: To investigate whether miRNA-induced activation of TLRs also occurs in human cells, an NF-κB reporter assay was performed in HEK-293 cells. NF-κB, a transcription factor modulating the expression of several cytokine genes, is activated by several TLRs, including the only ssRNA-binding human TLRs, TLR7 and TLR8. Therefore, we treated HEK-293 cells expressing human TLR7 or TLR8 (hereafter, TLR7- and TLR8-HEK-293 cells, respectively) with Dotap alone or with Dotap formulations of miR-16, -21, -29a, or -147 and performed an NF-κB reporter assay. As positive controls Gardiquimod and ssRNA40 were used, specific agonists of TLR7 and TLR8, respectively. […] To confirm this conclusion, transfected were TLR8-HEK-293 cells with a plasmid encoding a dominant negative form of TLR8 (TLR8DN) and treated these cells with the miRNAs of interest. In TLR8DN cells, the activation of NF-κB by miR-21 and miR-29a was abolished (FIG. 3F). […] NF-κB activity was assessed by QUANTI-Blue Assay (Invivogen). […] Levels of SEAP can be easily determined with QUANTI-Blue, a detection medium that turns purple/blue in the presence of alkaline phosphatase. […] The plate was then incubated at 37° C. for 1-3 h and SEAP levels were determined by reading the plate with a spectrophotometer at 620-655 nm (SpectraMax, Molecular Devices).
substance,measurement,value
"miR-147: synthetic mature miRNA (SEQ ID NO: 3), sequence similar to RNA33, Dotap formulation (GUGUGUGGAAAUGCUUCUGC; DOTAP formulation, further chemistry not given here)",NF-κB activation,only in TLR8-HEK-293 cells
